According to US20060229322A1, “Anhydrous crystalline form of valacyclovir hydrochloride” (priority 2002, published 2006):
Counter-ions that a name gives are not always drawn.

Key:
[1] = Storage stability of the anhydrous crystalline form at room temperature; format: physicochemical
Source text: (§1) Such stability is vital for a pharmaceutical since stocks thereof may be stored for long periods prior to use. […] The forms of the invention are therefore suitable for transport in countries where ambient temperatures are exceptionally high.

[2] = format: physicochemical
Source text: as §1

CC(C)[C@H](N)C(=O)OCCOCn1cnc2c(=O)[nH]c(N)nc21 [valacyclovir hydrochloride]
time shown to be stable [1]: over 3 years
time for which stability is exhibited when heated [2]: over 550 hours
